In ChEMBL document CHEMBL1201862, “PubChem BioAssay data set” (2004):
The source made the active and inactive calls.

Assays:
[1] = biological target: T1, RNA-binding protein pos-1 (Caenorhabditis elegans, UniProt G5EF15); assay: disruptors of C. elegans POS-1 RNA interaction – biochemical, fluorescence polarization, dose response (AID 1964);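 note: purified POS-1 fused to maltose binding protein made in E. coli; potency of compounds blocking POS-1 binding to fluorescent RNA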
T1 sequence (G5EF15 whole entry): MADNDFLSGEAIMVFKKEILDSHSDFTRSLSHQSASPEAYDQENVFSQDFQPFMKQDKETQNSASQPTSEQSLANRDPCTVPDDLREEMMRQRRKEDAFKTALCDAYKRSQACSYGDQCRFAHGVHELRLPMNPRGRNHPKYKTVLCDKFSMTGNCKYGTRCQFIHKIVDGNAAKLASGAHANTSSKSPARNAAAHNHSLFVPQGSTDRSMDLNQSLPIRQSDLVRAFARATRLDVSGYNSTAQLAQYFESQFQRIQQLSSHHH

[2] = biological target: T2, Zinc finger protein mex-5 (Caenorhabditis elegans, UniProt Q9XUB2); assay: potency of MEX-5 RNA-binding blockers – biochemical, C. elegans, fluorescence polarization, dose response (AID 1960)
T2 sequence (Q9XUB2 whole entry): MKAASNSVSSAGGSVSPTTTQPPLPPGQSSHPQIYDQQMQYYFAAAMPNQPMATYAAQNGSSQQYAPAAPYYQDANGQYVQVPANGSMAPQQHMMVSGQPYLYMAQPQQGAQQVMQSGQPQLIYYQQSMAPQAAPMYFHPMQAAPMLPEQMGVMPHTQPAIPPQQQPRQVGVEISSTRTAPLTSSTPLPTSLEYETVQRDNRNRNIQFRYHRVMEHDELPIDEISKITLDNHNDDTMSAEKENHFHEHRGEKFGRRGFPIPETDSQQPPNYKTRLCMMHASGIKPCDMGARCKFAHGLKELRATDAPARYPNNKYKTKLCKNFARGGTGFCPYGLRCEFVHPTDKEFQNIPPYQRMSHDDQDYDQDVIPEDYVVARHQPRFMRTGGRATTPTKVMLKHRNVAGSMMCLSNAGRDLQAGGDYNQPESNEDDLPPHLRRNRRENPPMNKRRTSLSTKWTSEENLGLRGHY

[3] = biological target: NS3 (Hepatitis C virus, UniProt A3EZJ3); assay: PubChem AID 2173; design: species or system Hepacivirus hominis
[4] = THP-1 cell cytotoxicity, dose response, cytotoxicity control for non-replicating M. tuberculosis project (AID 489025); format: functional
[5] = biological target: T3, Heat shock factor protein 1 (Mus musculus, UniProt P38532); assay: enhancement of HSF1-driven luciferase signal – cell-based, NIH3T3, luminescence, dose retest, confirmation (AID 435004); format: functional;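 note: stress induced by proteasome inhibitor MG132 added 30 min after compound; luciferase reporter driven by HSF1 response element in NIH3T3 cells; actives raise luminescence as potentiators of the MG132 stress response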
T3 sequence (P38532 whole entry): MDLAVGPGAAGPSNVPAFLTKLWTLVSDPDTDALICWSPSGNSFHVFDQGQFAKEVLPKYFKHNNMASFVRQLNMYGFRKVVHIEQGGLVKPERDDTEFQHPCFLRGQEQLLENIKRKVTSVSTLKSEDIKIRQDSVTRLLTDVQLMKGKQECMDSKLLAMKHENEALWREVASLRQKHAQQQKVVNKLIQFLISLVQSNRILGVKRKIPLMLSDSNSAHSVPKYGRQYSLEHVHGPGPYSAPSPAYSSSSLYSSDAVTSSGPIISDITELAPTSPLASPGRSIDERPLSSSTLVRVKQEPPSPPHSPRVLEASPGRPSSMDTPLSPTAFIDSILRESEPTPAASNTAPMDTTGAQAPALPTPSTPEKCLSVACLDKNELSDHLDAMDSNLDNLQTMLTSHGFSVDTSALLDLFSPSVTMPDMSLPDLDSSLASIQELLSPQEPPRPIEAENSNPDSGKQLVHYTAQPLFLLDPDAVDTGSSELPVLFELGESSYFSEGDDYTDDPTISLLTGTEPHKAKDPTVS

[6] = cells; format: functional
[7] = test system: Vero; assay: cells; format: functional; settings: Chlorocebus sabaeus
[8] = test system: Staphylococcus aureus; assay: Inhibitors of Bacterial Quorum Sensing Structure Activity Relationship (SAR) Analysis: Dose Response Assay. [Related pubchem assays: 700, 527 ]; format: functional, organism-based
[9] = biological target: T4, Neuropeptides B/W receptor type 1 (Homo sapiens, UniProt P48145); assay: Fluorescence-based dose response cell-based high throughput screening assay to identify antagonists of the G-protein coupled receptor 7 (GPR7). [Related pubchem assays: 1952 (Screening assay (GPR7 antagonists).), 1880 (Summary AID.)]; format: functional
T4 sequence (P48145 whole entry): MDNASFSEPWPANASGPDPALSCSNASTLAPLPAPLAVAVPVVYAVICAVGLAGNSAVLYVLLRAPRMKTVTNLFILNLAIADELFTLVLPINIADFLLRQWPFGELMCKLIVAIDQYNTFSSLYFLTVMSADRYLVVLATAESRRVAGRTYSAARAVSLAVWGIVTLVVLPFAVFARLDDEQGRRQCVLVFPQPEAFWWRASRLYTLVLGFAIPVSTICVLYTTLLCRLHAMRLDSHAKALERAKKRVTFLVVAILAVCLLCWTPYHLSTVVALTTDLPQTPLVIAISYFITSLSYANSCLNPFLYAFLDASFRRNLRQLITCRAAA

[10] = biological target: Melanin-concentrating hormone receptor 1 (Homo sapiens, UniProt Q99705); assay: Fluorescence-based counterscreen for antagonists of the G-protein coupled receptor 7 (GPR7): cell-based high throughput dose response assay to identify antagonists of the melanin-concentrating hormone receptor 1 (MCHR1).; format: functional
[11] = biological target: Aspartyl aminopeptidase (Plasmodium falciparum 3D7, UniProt Q8I2J3)
[12] = biological target: Procathepsin L (Homo sapiens, UniProt P07711)
[13] = biological target: T5, Mannose-6-phosphate isomerase (Homo sapiens, UniProt P34949); assay: MPI enzyme activity inhibition – biochemical, fluorescence intensity, coupled assay, primary screen (AID 1209)
T5 sequence (P34949 whole entry): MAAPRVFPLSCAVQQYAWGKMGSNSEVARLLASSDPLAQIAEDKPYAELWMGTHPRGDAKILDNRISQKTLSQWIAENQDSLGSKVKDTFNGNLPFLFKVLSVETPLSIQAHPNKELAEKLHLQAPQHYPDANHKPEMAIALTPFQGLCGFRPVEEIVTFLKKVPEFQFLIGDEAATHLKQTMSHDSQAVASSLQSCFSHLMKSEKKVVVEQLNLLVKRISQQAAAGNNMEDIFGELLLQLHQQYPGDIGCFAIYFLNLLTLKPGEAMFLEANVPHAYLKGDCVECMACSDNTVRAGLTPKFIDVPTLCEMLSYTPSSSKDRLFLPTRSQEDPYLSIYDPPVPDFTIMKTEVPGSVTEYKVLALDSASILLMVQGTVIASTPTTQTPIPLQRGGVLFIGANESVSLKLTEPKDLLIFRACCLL

[14] = biological target: T5, Mannose-6-phosphate isomerase; assay: MPI inhibition at elevated mannose 6-phosphate – biochemical, fluorescence intensity, high mannose 6-phosphate, primary screen (AID 1220)
[15] = biological target: T6, Neuropeptide Y receptor type 2 (Homo sapiens, UniProt P49146); assay: Fluorescence counterscreen for potentiators or agonists of NPY-Y1: Cell-based high-throughput dose response assay for potentiators or agonists of NPY-Y2.; format: functional
T6 sequence (P49146 whole entry): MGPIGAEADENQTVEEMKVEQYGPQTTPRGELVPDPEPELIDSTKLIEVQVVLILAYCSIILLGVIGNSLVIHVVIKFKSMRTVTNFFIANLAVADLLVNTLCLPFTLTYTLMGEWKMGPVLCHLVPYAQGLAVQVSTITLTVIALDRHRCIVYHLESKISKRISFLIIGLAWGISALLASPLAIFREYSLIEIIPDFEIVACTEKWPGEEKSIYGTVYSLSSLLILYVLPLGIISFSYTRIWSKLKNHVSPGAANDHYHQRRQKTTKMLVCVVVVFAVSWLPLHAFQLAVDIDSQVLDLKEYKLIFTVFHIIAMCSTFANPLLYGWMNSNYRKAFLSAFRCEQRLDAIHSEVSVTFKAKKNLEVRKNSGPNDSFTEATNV

[16] = biological target: T6, Neuropeptide Y receptor type 2; assay: Fluorescence-based counterscreen for agonists of NPY-Y1: cell-based high-throughput dose response assay for agonists of NPY-Y2.; format: functional
[17] = test system: HEK293; assay: Fluorescence-based counterscreen for potentiators or agonists of NPY-Y1: cell-based high-throughput dose response assay for inhibitors of cyclic nucleotide gated ion channel (CNGC) activity. In this assay, the parental HEK293 cell line transfected with a cyclic-nucleotide gated ion channel (CNGC)-based cAMP sensor is used to measure inhibition of isoproterenol-induced CNGC …; format: functional; settings: Homo sapiens
[18] = biological target: T7, Neuropeptide Y receptor type 1 (Homo sapiens, UniProt P25929); assay: Fluorescence-based dose response cell-based high-throughput screening assay for potentiators or agonists of NPY-Y1.; format: functional
T7 sequence (P25929 whole entry): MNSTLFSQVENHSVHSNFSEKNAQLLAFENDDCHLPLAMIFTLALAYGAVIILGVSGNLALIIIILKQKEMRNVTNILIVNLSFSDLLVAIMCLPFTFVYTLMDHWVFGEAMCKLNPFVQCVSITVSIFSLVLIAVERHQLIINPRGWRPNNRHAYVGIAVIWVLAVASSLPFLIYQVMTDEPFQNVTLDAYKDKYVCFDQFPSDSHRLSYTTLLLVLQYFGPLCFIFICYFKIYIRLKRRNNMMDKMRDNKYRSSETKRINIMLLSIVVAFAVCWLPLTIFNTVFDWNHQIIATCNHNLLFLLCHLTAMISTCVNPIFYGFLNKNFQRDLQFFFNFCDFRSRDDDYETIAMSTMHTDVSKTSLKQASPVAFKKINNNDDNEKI

[19] = biological target: T7, Neuropeptide Y receptor type 1; assay: Fluorescence-based dose response cell-based high-throughput screening assay for agonists of NPY-Y1. [Related pubchem assays: 1697 (Screening assay (NPY-Y1 agonists).), 1359 (Screening assay (NPY-Y2 potentiators or agonists).), 1304 (Screening assay (NPY-Y1 potentiators or agonists).), 1704 (Screening assay (CNGC inhibitors).), 1791 (Summary AID.)]; format: functional
[20] = biological target: T8, Rac GTPase-activating protein 1 (Homo sapiens, UniProt Q9H0H5); assay: blockers of MgcRacGAP-driven Rac1 GTP hydrolysis – biochemical, ADP Hunter fluorescence, primary and confirmatory, confirmation (AID 624330); format: functional
T8 sequence (Q9H0H5 whole entry): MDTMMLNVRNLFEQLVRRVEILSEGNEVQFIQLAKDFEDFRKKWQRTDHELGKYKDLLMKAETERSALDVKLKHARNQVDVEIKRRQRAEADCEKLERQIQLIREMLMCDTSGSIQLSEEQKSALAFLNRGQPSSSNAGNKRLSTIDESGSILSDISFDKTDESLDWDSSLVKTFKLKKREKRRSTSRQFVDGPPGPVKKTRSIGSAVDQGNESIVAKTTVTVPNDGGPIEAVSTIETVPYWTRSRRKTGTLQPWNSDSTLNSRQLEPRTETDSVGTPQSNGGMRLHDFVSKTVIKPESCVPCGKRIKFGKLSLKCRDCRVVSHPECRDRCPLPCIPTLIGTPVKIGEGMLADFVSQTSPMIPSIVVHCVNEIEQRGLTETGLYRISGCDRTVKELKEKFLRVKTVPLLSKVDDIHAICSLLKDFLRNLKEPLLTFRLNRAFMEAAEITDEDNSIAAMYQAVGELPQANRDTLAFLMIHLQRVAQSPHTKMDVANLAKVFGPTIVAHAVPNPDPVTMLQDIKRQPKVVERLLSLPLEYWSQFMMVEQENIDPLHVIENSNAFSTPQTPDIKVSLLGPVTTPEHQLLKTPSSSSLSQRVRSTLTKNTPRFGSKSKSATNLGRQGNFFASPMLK

[21] = biological target: T9, Alkaline phosphatase, tissue-nonspecific isozyme (Homo sapiens, UniProt P05186)
T9 sequence (P05186 whole entry): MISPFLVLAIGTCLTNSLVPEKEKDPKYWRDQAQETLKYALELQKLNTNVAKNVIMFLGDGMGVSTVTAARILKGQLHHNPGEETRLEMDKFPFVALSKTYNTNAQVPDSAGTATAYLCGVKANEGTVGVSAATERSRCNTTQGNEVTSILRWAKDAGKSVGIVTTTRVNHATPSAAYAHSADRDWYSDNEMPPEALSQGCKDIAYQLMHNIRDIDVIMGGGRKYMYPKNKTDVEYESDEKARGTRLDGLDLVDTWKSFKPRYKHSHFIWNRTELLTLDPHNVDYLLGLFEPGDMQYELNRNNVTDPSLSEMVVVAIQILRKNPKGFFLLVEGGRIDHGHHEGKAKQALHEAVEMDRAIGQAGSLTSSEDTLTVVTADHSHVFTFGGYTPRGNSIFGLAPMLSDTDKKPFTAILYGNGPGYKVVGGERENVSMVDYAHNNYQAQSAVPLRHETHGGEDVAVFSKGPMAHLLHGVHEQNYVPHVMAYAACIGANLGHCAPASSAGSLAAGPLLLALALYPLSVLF

Procathepsin L, sequence (P07711 whole entry): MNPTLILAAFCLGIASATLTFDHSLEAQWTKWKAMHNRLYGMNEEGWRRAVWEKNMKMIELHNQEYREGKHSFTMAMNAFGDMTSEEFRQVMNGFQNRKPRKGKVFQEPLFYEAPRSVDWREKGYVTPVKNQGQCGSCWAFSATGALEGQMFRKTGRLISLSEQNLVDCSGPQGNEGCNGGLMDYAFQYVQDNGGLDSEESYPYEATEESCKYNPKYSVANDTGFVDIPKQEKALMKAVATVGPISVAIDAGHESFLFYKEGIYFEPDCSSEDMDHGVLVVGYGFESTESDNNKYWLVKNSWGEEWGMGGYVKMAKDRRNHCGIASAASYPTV
NS3, sequence (A3EZJ3 whole entry): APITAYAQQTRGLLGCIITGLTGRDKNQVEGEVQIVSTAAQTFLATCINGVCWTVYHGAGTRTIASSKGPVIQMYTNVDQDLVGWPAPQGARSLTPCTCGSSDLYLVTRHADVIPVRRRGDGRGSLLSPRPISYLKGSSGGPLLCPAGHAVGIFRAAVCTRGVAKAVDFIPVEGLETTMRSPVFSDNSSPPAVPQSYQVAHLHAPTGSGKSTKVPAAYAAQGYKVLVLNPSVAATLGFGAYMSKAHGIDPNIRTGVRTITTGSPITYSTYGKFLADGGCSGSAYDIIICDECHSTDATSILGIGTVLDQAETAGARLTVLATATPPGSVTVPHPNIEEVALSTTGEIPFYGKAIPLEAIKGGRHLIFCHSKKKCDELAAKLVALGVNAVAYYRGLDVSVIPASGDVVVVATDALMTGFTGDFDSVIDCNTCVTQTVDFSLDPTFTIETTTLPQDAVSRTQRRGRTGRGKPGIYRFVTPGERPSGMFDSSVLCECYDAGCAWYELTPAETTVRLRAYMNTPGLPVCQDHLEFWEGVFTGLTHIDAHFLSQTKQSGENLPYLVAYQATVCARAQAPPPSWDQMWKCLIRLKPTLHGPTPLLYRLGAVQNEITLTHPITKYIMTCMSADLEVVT
Aspartyl aminopeptidase, sequence (Q8I2J3 whole entry): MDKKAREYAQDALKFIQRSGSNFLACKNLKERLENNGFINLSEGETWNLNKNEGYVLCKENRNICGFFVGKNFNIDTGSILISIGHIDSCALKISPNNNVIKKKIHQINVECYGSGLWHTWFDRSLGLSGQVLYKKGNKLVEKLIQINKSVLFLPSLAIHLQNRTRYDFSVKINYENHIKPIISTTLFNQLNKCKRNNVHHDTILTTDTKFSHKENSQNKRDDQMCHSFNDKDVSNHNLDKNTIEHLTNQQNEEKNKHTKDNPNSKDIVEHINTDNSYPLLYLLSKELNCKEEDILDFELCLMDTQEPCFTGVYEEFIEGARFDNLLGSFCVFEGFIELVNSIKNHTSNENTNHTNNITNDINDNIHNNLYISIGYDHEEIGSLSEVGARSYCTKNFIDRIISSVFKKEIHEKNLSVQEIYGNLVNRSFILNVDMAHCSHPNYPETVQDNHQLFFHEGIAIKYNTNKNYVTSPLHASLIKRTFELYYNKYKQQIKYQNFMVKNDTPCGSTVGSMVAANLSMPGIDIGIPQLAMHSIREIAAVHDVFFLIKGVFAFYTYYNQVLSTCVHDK
Melanin-concentrating hormone receptor 1, sequence (Q99705 whole entry): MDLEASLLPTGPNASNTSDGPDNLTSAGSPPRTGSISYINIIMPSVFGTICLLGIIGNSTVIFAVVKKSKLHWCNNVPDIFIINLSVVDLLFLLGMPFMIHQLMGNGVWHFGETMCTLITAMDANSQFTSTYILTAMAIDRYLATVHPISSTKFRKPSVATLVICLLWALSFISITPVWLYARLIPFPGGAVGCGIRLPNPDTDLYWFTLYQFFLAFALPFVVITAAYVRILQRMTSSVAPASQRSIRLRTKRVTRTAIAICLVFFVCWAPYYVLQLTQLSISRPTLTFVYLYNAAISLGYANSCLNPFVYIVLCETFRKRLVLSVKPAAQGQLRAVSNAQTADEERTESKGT

SMILES: COc1ccc(N2C(=O)NC(=O)/C(=C/c3ccc([N+](=O)[O-])s3)C2=O)cc1
- EC50 [1]: > 300 µM (not active)
- EC50 [2]: 24.3 µM (active)
- IC50 [3]: 9.42 µM (active)
- CC50 [4]: 38.5 µM (active)
- EC50 [5]: 8.55 µM (active)
- IC50 [6]: 26.7 µM (active)
- CC50 [7]: > 25 µM (active)

SMILES: CC1CCN(C(C(=O)Nc2ccc(C(C)C)cc2)c2ccc3c(c2)OCO3)CC1 (stereo unspecified)
- IC50 [8]: 0.717 µM (active)

SMILES: COc1ccc(S(=O)(=O)N2CCC(C(=O)NCc3ccco3)CC2)cc1
- IC50 [9]: > 43.8 µM (not active)
- IC50 [10]: > 43.8 µM (not active)

SMILES: CCOC(=O)NC1(Nc2ccc(C)cc2)Oc2ccccc2O1
- IC50 [11]: 5.07 µM (active)
- IC50 [12]: > 59.6 µM (not active)
- IC50 [13]: > 50 µM (not active)
- IC50 [14]: > 50 µM (not active)

SMILES: CCOC(=O)C(Cc1ccccc1)C(=O)Nc1ccc(N(CC)CC)cc1 (stereo unspecified)
- EC50 [15]: 23.9 µM (not active)
- EC50 [16]: 12.4 µM (not active)
- IC50 [17]: 18.4 µM (not active)
- EC50 [18]: 5.4 µM (active)
- EC50 [19]: 7.05 µM (active)
- IC50 [20]: 93.1 µM (active)

SMILES: O=C1CC(N2CCN(c3cccc(C(F)(F)F)c3)CC2)C(=O)N1c1ccc(F)cc1 (stereo unspecified)
- EC50 [21]: > 100 µM (not active)
